From publication PMC9503459, “Antifungal Activity, Structural Stability, and Immunomodulatory Effects on Human Immune Cells of Defensin from the Lentil Lens culinaris” (Membranes, 2022) come the findings set out here.

For orientation: cell viability means a read-out of living cells in per cent, often relative to untreated cells. Low values mean more harm to the cells, high ones less harm to the cells.

Data set [1] deals with clinical isolate of Candida albicans (v47a3). The data set can be described thus: Antifungal microdilution assay, C. albicans. The format is cell-based. The conditions noted are these: 24 h; for inhibition of the growth: C. albicans. The procedure: The clinical isolates of Candida albicans (v47a3), C. krusei (225/2) and C. glabrata (252/2) were collected from patients with human immunodeficiency virus (HIV) infection and provided by G.N. Gabrichevsky Research Institute for Epidemiology and Microbiology (Moscow, Russia). Strains stocks were kept at −70 ℃ in 10% nonfat milk with 10% glycerol.
Antifungal susceptibility tests were performed by the microdilution method using 96-well microplates. Yeast cells in stock were inoculated onto modified YPD (yeast extract 5 g/L, peptone 10 g/L, glucose 10 g/L) agar plates, and incubated for 24 h at 37 ℃. After replating, cells were cultured in modified YPD broth at 37 ℃ to optical density 1.0 at 540 nm. Further, yeast cells in modified YPD broth at concentration of 5 × 10^4 cells/mL were mixed with equal volumes of serial two-fold dilutions of the peptide in water which started at the highest peptide concentration of 200 µM. Final peptide concentrations in the wells were 100, 50, 25, 12.5, 6.25, 3.125, and 1.56 μM. Controls without defensin were also tested. Plates were incubated at 30 ℃ during 24 h. Yeast growth was estimated using inverted microscope as well as by measuring the optical density at 540 nm. Percentage of growth inhibition was defined as: growth inhibition (%) = ((Acontrol − Asample)/Acontrol) × 100%. All of the experiments were performed twice in triplicate. The t-test was performed to study the statistical difference (p-value) between the means of controls and samples with different peptide concentrations. The experiment with lentil Lens culinaris lipid transfer protein Lc-LTP2 was carried out for comparison.
On the technique in general: Broth dilution looks for growth in wells or tubes with falling amounts of substance.

For the next data set, the system named is PBMCs. The data set can be described thus: Resazurin-based cytotoxicity assay, PBMCs. It counts as cell-based, human. The conditions noted are these: 50 μM peptide, 24 h. The procedure:
The cytotoxic properties of Lc-def and melittin as a control were investigated also by resazurin-based cell cytotoxicity assay. PBMCs and THP-1 cells were seeded in 96-well plates at 2 × 10^6 and 1 × 10^6 cells per well, respectively, in RPMI-1640 supplemented with 10% FBS, and kept in CO2-incubator. After 24 h serial two-fold dilutions of compounds in culture medium were then added to final concentrations from 0.2 to 50 μM. After 24 h of incubation with the peptides, resazurin (Sigma) was added at a final concentration of 0.7 mM, and the plates were incubated overnight (16 h). Fluorescent resorufin was registered using 535/595 filter at PlateReader AF2200 (Eppendorf, Hamburg, Germany). Untreated corresponding cells were used as negative controls. The cell viability was calculated as: cell viability (%) = (Fsample/Fcontrol) × 100%. The experiment was carried out twice in triplicate.

No end group written: not given here.

As to “Lc-def: defensin from lentil Lens culinaris seeds (UniProt:B3F051), recombinant, overexpressed in Escherichia coli (KTCENLSDSFKGPCIPDGNCNKHCKEKEHLLSGRCRDDFRCWCTRNC; disulfide (positions not given here); ends not checked; also: disulfide bonds present, pairing not given here; UniProt B3F051 28-74, looked up)”, the IC50 in data set [1] (C. albicans clinical isolate, microdilution, modified YPD, 30 °C, OD540, twice in triplicate, read-out: concentration causing 50% growth inhibition) was in the range of 25 to 50 µM. Moreover, the “inhibition of the growth” value is “approximately 80%” in data set [1] (50 μM peptide) and under 100% in data set [1] (100 μM peptide). Also, the cell viability in the data set with PBMCs came to 100%.
